{"source": "patent US20130245081A1", "about": "“Compositions and Methods for Treating Amyotrophic Lateral Sclerosis” (priority 2009, published 2013)", "key": {"[1]": {"test": "clinical", "settings": "for CL/F / Fe / Ue / λz: Day 7, fasted; for CL renal: urine and plasma", "from_the_text": "A total of 54 subjects (30 subjects in Study CL001 and 24 subjects in Study CL002) were enrolled. Healthy, non-smoking, male and female subjects 30 to 60 years of age, inclusive, with normal or clinically acceptable physical examination and electrocardiogram (ECG) findings, systolic (90 to 140 mmHg) and diastolic (50 to 90 mmHg) blood pressure, and resting heart rate (50 to 100 bpm) who were willing to provide signed, written informed consent were eligible for enrollment. Female volunteers had to be of non-childbearing potential with negative pregnancy test results at screening and clinic check-in. Subjects with any history of neurodegenerative illnesses were excluded. The use of over-the-counter medications within 7 days prior to enrollment or prescription medications within 12 weeks prior to enrollment was prohibited.\nIn the second study, subjects were enrolled in 3 successive double-blind, placebo-controlled, panels of 8 subjects (n=6 active, n=2 placebo per panel).\nMatching placebo capsules contained equivalent weights of microcrystalline cellulose. Capsules were administered orally with water. […] Subjects in the fasted cohorts were required to fast overnight for a minimum of 10 hours before dose administration. Subjects in the food cohort were required to fast overnight for a minimum of 10 hours before dose administration, with exception of the high fat/high calorie meal that was administered 30 minutes prior to drug administration. […] All available safety data were reviewed under blinded conditions to monitor for serious safety or tolerability events prior to proceeding with dose escalations.\nIn both studies, a complete collection was attempted for each urine sample interval.\nBlood samples were collected into a 10 mL dipotassium ethylenediaminetetraacetic acid (K2-EDTA) Vacutainer® via an indwelling peripheral intravenous cannula or by direct venipuncture. Within 15 minutes of collection, the samples were centrifuged at 3000 rpm for 10 minutes at 4° C. After centrifugation, the plasma was divided into 2 aliquots of at least 1.5 mL each, placed into polypropylene containers, frozen, and stored at −20° C. until they were shipped for analysis.\nUrine collected in each interval was well mixed, the pH was recorded, the total volume (or the weight and specific gravity) was recorded, and 2 aliquots of 20 mL each were collected into polypropylene containers and stored at −20° C. until they were shipped for analysis. All plasma and urine sample were shipped frozen on dry ice in 2 separate shipments per group (1 set of aliquots per shipment) to Eurofins AvTech Laboratories Inc. (Kalamazoo, Mich.) for bioanalytical analysis.\nPlasma and urine concentrations were measured using validated liquid chromatography/mass spectrometry/mass spectrometry (LC/MS/MS) methods. […] The analytical procedure for analysis of plasma samples used a 100 μL aliquot of K2EDTA human plasma. The plasma sample was spiked with 20 μL of working internal standard solution and 20 μL of type 1 water for subject samples and QCs and 20 μL of the appropriate intermediate standard solution for standards. One hundred microliters ([…]) of 50% ammonium hydroxide solution was added to the sample followed by vortex mixing. One milliliter (1 mL) of tertbutyl methyl ether was then added and the sample was vortexed to extract the analyte and internal standard into the organic layer, followed by separation using flash freezing. The organic layer was decanted, evaporated to dryness, and the sample was reconstituted with 0.5 mL of reconstitution solution (0.1% ammonium hydroxide in 50:50 methanol; type 1 water (v/v/v)). A 10 μL aliquot of this reconstituted sample was injected into an LC/MS/MS system for analysis."}, "[2]": {"system": "patients with ALS"}, "[3]": {"system": "patients with ALS", "settings": "for treatment failures (6-point or greater drop in ALSFRS-R total score): baseline to 12 weeks; for treatment failures (reduction in VC of 20% or greater): baseline to Week 12"}, "[4]": {"settings": "both, human, plasma, oral, 50 mg"}, "[5]": {"settings": "both, human, plasma, oral, 100 mg"}, "[6]": {"settings": "both, human, plasma, oral, 150 mg"}, "[7]": {"settings": "combined active treatment groups, Part 1"}}, "note": "Read-outs that look alike come from different tables or passages of the source.", "data": [{"smiles": "CCCN[C@@H]1CCc2nc(N)sc2C1", "note": "[dexpramipexole, (6R)-2-amino-4,5,6,7-tetrahydro-6-(propylamino)benzothiazole]", "values": [{"measurement": "CL/F", "setting": "[1]; 50 mg Twice Daily", "value": "437 ± 60.8", "unit": "mL/min"}, {"measurement": "Fe", "setting": "[1]; 50 mg Twice Daily", "value": "87.2 ± 10.26", "unit": "% dose"}, {"measurement": "Ue", "setting": "[1]; 50 mg Twice Daily", "value": "32.5 ± 3.82", "unit": "mg"}, {"measurement": "λz", "setting": "[1]; 50 mg Twice Daily", "value": "0.1039 ± 0.0193", "unit": "h⁻¹"}, {"measurement": "CL/F", "setting": "[1]; 100 mg Twice Daily", "value": "510 ± 57.4", "unit": "mL/min"}, {"measurement": "Fe", "setting": "[1]; 100 mg Twice Daily", "value": "75.5 ± 3.51", "unit": "% dose"}, {"measurement": "Ue", "setting": "[1]; 100 mg Twice Daily", "value": "56.3 ± 2.62", "unit": "mg"}, {"measurement": "λz", "setting": "[1]; 100 mg Twice Daily", "value": "0.0893 ± 0.0117", "unit": "h⁻¹"}, {"measurement": "CL/F", "setting": "[1]; 150 mg Twice Daily", "value": "507 ± 74.1", "unit": "mL/min"}, {"measurement": "Fe", "setting": "[1]; 150 mg Twice Daily", "value": "89.6 ± 7.83", "unit": "% dose"}, {"measurement": "Ue", "setting": "[1]; 150 mg Twice Daily", "value": "100.3 ± 8.76", "unit": "mg"}, {"measurement": "λz", "setting": "[1]; 150 mg Twice Daily", "value": "0.0895 ± 0.0184", "unit": "h⁻¹"}, {"measurement": "dose recovered in the urine as unchanged parent drug", "setting": "[1]; 12-hour steady-state dosing period", "value": "approximately 84%"}, {"measurement": "AUC(0-t)", "setting": "[1]; [4]", "value": "1450 ± 221", "unit": "ng·h/mL"}, {"measurement": "Cmax at 7 day", "setting": "[1]; [4]", "value": "191 ± 20.9", "unit": "ng/mL"}, {"measurement": "Tmax", "setting": "[1]; [4]", "value": 1.75, "unit": "h"}, {"measurement": "Vd/F", "setting": "[1]; [4]", "value": "255 ± 24", "unit": "L"}, {"measurement": "half-life", "setting": "[1]; [4]", "value": "412 ± 77.4", "unit": "min"}, {"measurement": "AUC(0-t)", "setting": "[1]; [5]", "value": "2470 ± 304", "unit": "ng·h/mL"}, {"measurement": "Cmax at 7 day", "setting": "[1]; [5]", "value": "306 ± 54.8", "unit": "ng/mL"}, {"measurement": "Tmax", "setting": "[1]; [5]", "value": 2.02, "unit": "h"}, {"measurement": "Vd/F", "setting": "[1]; [5]", "value": "348 ± 61.7", "unit": "L"}, {"measurement": "half-life", "setting": "[1]; [5]", "value": "473 ± 71.4", "unit": "min"}, {"measurement": "AUC(0-t)", "setting": "[1]; [6]", "value": "3750 ± 575", "unit": "ng·h/mL"}, {"measurement": "Cmax", "setting": "[1]; [6]", "value": "479 ± 74.6", "unit": "ng/mL"}, {"measurement": "Tmax", "setting": "[1]; [6]", "value": 2.18, "unit": "h"}, {"measurement": "Vd/F", "setting": "[1]; [6]", "value": "349 ± 75.8", "unit": "L"}, {"measurement": "half-life", "setting": "[1]; [6]", "value": "483 ± 108", "unit": "min"}, {"measurement": "CL renal", "setting": "[1]; both, human, oral, 50 mg", "value": "385 ± 90.3", "unit": "mL/min"}, {"measurement": "CL renal", "setting": "[1]; both, human, oral, 100 mg", "value": "382 ± 62.7", "unit": "mL/min"}, {"measurement": "CL renal", "setting": "[1]; both, human, oral, 150 mg", "value": 451, "unit": "mL/min"}, {"measurement": "Total AE's", "setting": "[2]; 50 mg, 12 weeks", "value": "19 (82.6%) N (%)"}, {"measurement": "percentage of subjects reporting AEs", "setting": "[2]; 50 mg, Part 1", "value": 83, "unit": "%"}, {"measurement": "subjects reporting SAEs", "setting": "[2]; 50 mg, Part 1", "value": 2, "unit": "subjects"}, {"measurement": "subjects with at least 1 AE possibly or probably treatment-related", "setting": "[2]; 50 mg, Part 1", "value": 17, "unit": "%"}, {"measurement": "Total AE's", "setting": "[2]; 150 mg, 12 weeks", "value": "25 (96.2%) N (%)"}, {"measurement": "Total AE's", "setting": "[2]; 300 mg, 12 weeks", "value": "23 (88.5%) N (%)"}, {"measurement": "percentage of subjects reporting AEs", "setting": "[2]; 300 mg, Part 1", "value": 89, "unit": "%"}, {"measurement": "subjects discontinued due to adverse event (nausea)", "setting": "[2]; 300 mg, Part 1", "value": 1, "unit": "subjects"}, {"measurement": "subjects reporting SAEs", "setting": "[2]; 300 mg, Part 1", "value": 3, "unit": "subjects"}, {"measurement": "subjects with at least 1 AE possibly or probably treatment-related", "setting": "[2]; 300 mg, Part 1", "value": 27, "unit": "%"}, {"measurement": "deaths during Part 1", "setting": "[2]; 50, 150, 300 mg, 12 weeks", "value": "No deaths"}, {"measurement": "AE fall", "setting": "[2]; [7]", "value": 32, "unit": "%"}, {"measurement": "AE headache", "setting": "[2]; [7]", "value": 13, "unit": "%"}, {"measurement": "AE muscular weakness", "setting": "[2]; [7]", "value": 24, "unit": "%"}, {"measurement": "AE nausea", "setting": "[2]; [7]", "value": 11, "unit": "%"}, {"measurement": "AE post lumber puncture syndrome", "setting": "[2]; [7]", "value": 19, "unit": "%"}, {"measurement": "safety and tolerability", "setting": "[2]; total daily doses of 50, 150, 300 mg, 12 weeks", "value": "safe and well-tolerated"}, {"measurement": "treatment failures (6-point or greater drop in ALSFRS-R total score)", "setting": "[3]; 50 mg/day", "value": 35, "unit": "%"}, {"measurement": "mean change from baseline to endpoint in ALSFRS-R total score", "setting": "[3]; 50 mg, 12 weeks", "value": "−5.0"}, {"measurement": "median change from baseline to endpoint in ALSFRS-R score", "setting": "[3]; 50 mg, 12 weeks", "value": "−3.0"}, {"measurement": "mean ALSFRS-R total score", "setting": "[3]; 50 mg, Week 12 of Part 1", "value": 32.4}, {"measurement": "mean McGill SIS score", "setting": "[3]; 50 mg, Week 12 of Part 1", "value": 6.3}, {"measurement": "mean upright VC", "setting": "[3]; 50 mg, Week 12 of Part 1", "value": 82.5, "unit": "%"}, {"measurement": "treatment failures (reduction in VC of 20% or greater)", "setting": "[3]; 50 mg", "value": 13, "unit": "%"}, {"measurement": "treatment failures (6-point or greater drop in ALSFRS-R total score)", "setting": "[3]; 150 mg/day", "value": 15, "unit": "%"}, {"measurement": "mean change from baseline to endpoint in ALSFRS-R total score", "setting": "[3]; 150 mg, 12 weeks", "value": "−3.3"}, {"measurement": "median change from baseline to endpoint in ALSFRS-R score", "setting": "[3]; 150 mg, 12 weeks", "value": "−2.5"}, {"measurement": "mean ALSFRS-R total score", "setting": "[3]; 150 mg, Week 12 of Part 1", "value": 35.8}, {"measurement": "mean upright VC", "setting": "[3]; 150 mg, Week 12 of Part 1", "value": 82.3, "unit": "%"}, {"measurement": "treatment failures (reduction in VC of 20% or greater)", "setting": "[3]; 150 mg", "value": 12, "unit": "%"}, {"measurement": "treatment failures (6-point or greater drop in ALSFRS-R total score)", "setting": "[3]; 300 mg/day", "value": 8, "unit": "%"}, {"measurement": "mean fine motor domain change of ALSFRS-R (mean±SEM)", "setting": "[3]; 300 mg/day, study endpoint", "value": "−0.6±0.24"}, {"measurement": "mean change from baseline to endpoint in ALSFRS-R total score", "setting": "[3]; 300 mg, 12 weeks", "value": "−2.2"}, {"measurement": "median change from baseline to endpoint in ALSFRS-R score", "setting": "[3]; 300 mg, 12 weeks", "value": "−2.0"}, {"measurement": "reduction of mean ALSFRS-R decline compared with placebo", "setting": "[3]; 300 mg, 12 weeks", "value": 39, "unit": "%"}, {"measurement": "reduction of median ALSFRS-R decline compared with placebo", "setting": "[3]; 300 mg, 12 weeks", "value": 50, "unit": "%"}, {"measurement": "slope of ALSFRS-R scores (linear mixed-effects)", "setting": "[3]; 300 mg, Part 1", "value": "−0.878"}, {"measurement": "mean ALSFRS-R total score", "setting": "[3]; 300 mg, Week 12 of Part 1", "value": 36.2}, {"measurement": "mean McGill SIS score", "setting": "[3]; 300 mg, Week 12 of Part 1", "value": 7.3}, {"measurement": "mean upright VC", "setting": "[3]; 300 mg, Week 12 of Part 1", "value": 82.1, "unit": "%"}, {"measurement": "median upright VC", "setting": "[3]; 300 mg, Week 12 of Part 1", "value": 91.2, "unit": "%"}, {"measurement": "treatment failures (reduction in VC of 20% or greater)", "setting": "[3]; 300 mg", "value": 4, "unit": "%"}, {"measurement": "reduction in handwriting score (FIG. 4A)", "setting": "[3]; daily doses of 30 mg (so in the source)", "value": "almost no reduction"}]}]}
